# Measured values from US7173014B2, “HIV-specific synthetic oligonucleotides and methods of their use” (priority 1997, dated 2007).
# Experiments:
# HIV-2 (ROD) = test: XTT-based anti-HIV assay, HIV-2; assay type: cell-based; conditions: XTT assay
# Text: The initial experiment performed involved evaluation of Oligos 12, 32, and 41 against three laboratory strains of HIV-1 (IIIB, RF and SK1) and one strain of HIV-2 (ROD) in parallel with the positive control compound ddC in the XTT-based anti-HIV assay. All these oligonucleotides are active against both HIV-1 and HIV-2.
# CEM-SS sells (AIDS Research and Reference Reagent Program, NIH) or other established human T cell lines used in these experiments were passaged in T-150 flasks for use in the assay. On the day preceding the assay, the cells were split 1:2 to assure they would be in an exponential growth phase at time of infection. On the day of assay the cells were washed twice with tissue culture medium and resuspended in fresh tissue cultures medium. Total cell and viability counting was performed using a hemacytometer and trypan blue dye exclusion. Cell viability was greater than 95% for the cells to be utilized in the assay. The cells were pelleted and resuspended at 2.5×10^4 cells per ml in tissue culture medium. Cells were added to the drug-containing plates in a volume of 50 μl.
# A pretitered aliquot of virus was removed from the freezer −80° C.) and allowed to thaw slowly to room temperature in a biological safety cabinet. The virus was resuspended and diluted into tissue culture medium such that the amount of virus added to each well in a volume of 50 μl will be the amount determined to give complete cell killing at 6 days post-infection. In general the virus pools produced with the IIIB isolate of HIV required the addition of 5 μl of virus per well.
# Each plate contained cell control wells (cells only), virus control wells (cells plus virus), drug toxicity control wells (cells plus drug only), drug colorimetric control wells (drug only) as well as experimental wells (drug plus cells plus virus).
# After 6 days of incubation at 37° C. in a 5% CO2 incubator, the test plates were analyzed by staining with the tetrazolium dye XTT. XTT-tetrazolium is metabolized by the mitochondrial enzymes of metabolically active cells to a soluble formazan product, allowing the rapid quantitative analysis of the inhibition of HIV-induced cell killing by anti-HIV test substances. On day 6 post-infection plates were removed from the incubator and observed. The use of round bottom microtiter plates allows rapid macroscopic analysis of the activity of a given test compound by the evaluation of pellet size. The results of the macroscopic observations were confirmed and enhanced by further microscopic analysis.
# XTT solution was prepared daily as a stock of 1 mg/ml in PBS. Phenazine methosulfate (PMS) solution was prepared at 15 mg/ml in PBS and stored in the dark at −20° C. XTT/PMS stock was prepared immediately before use by diluting the PMS 1:100 into PBS and adding 40 μl per ml of XTT solution. Fifty microliters of XTT/PMS was added to each well of the plate and the plate was incubated for an additional 4 hours at 37° C. Adhesive plate sealers were used in place of the lids, the sealed plate was inverted several times to mix the soluble formazan product and the plate was read spectrophotometrically at A450 nm with a Molecular Devices Vmax plate reader.
# [1] = test system: monocyte-macrophage-tropic strains BaL and ADA; test: Anti-HIV assay in fresh human monocyte-macrophages; assay type: cell-based, HIV-1
# Procedure: In addition to these T-tropic strains, the activity of the compounds was also evaluated against the monocyte-macrophage strains BaL and ADA. Oligos 12 and 32 according to the invention, as well as Oligo 41 are active against low passage clinical T-tropic strains of HIV-1. The activity of the compounds varies from strain to strain. The compounds were not active against the monocyte-macrophage-tropic strains BaL and ADA.
# For isolation of adherent cells, 3×10^6 non-PHA stimulated peripheral blood cells were resuspended in Hanks buffered saline (with calcium and magnesium) supplemented with 10% human AB serum. The cells were placed in a 24-well microtiter plate at 37° C. for 2 hours. Non-adherent cells were removed by vigorously washing six times. The adherent cells were cultured for 7 days in RPMI 1640 tissue culture medium with 15% fetal bovine serum. The cultures were carefully monitored for confluency during this incubation period. Infection of the cells was performed with the monocytotropic HIV-1 strains BaL or ADA and the matched pair of AZT-sensitive and AZT-resistant virus isolates. Each of these virus isolates was obtained from the NIAID AIDS Research and Reference Reagent Program. High titer pools of each of these viruses have been harvested from infected cultures of peripheral blood adherent cells and frozen in 1.0 ml aliquots at −80° C. Monocyte-macrophage monolayers were infected at an MOI of 0.1. Compounds to be evaluated in the monocyte-macrophage assay are added to the monolayers shortly before infection in order to maximize the potential for identifying active compounds.
# At 2 days post-infection, the medium was decanted and the cultures washed twice with complete medium in order to remove excess virus. […] Control curves are generated in each assay to accurately quantify the amount of capsid protein in each sample. Data was obtained by spectrophotometric analysis at 450 nm using a plate reader (Molecular Devices Vmax). P24 concentrations were calculated from the optical density values by use of the Molecular Device software package Soft Max.
# [2] = test system: fresh human peripheral blood mononuclear cells; test: Toxicity in uninfected and HIV-1 infected fresh human PBMC (XTT, MTT, trypan blue, tritiated thymidine); assay type: cell-based
# Procedure: In yet another experiment, the toxicity of Oligo 41 was evaluated in uninfected and HIV-1 infected fresh human peripheral blood mononuclear cells, using a variety of quantitative endpoints. Toxicity was evaluated using the tetrazolium dyes XTT or MTT, trypan blue cell and cell viability counting and the incorporation of tritiated thymidine. Two replicate assays were performed. In the first assay, Oligo 41 was used at a high test concentration of 50 μg/ml and toxicity was evaluated on day 7. […] A second assay was performed to further evaluate toxicity at higher compound concentration and with longer exposure to the compound.
# For the PBL assay, PHA-P stimulated cells from at least two normal donors were pooled, set in fresh medium at 2×10^6/ml, and plated in the interior wells of a 96 well round bottom microplate at 50 μL/well. Test drug dilutions were prepared at a 2× concentration in microtiter tubes, and 100 μl of each concentration was placed in appropriate wells in a standard format. Fifty microliters of a predetermined dilution of virus stock was placed in each test well. […]
# Tritiated thymidine incorporation was measured in parallel cultures at day 7. […] The filters were dried, placed in a scintillation vial with 1 ml of scintillation cocktail and incorporated radioactivity was quantified on a liquid scintillation counter (e.g., Packard Tri-Carb 1900 TR450).
substance,measurement,setting,value
"Oligo 41: oligonucleotide having SEQ ID NO:6; sequence not printed, not listed in TABLE 2 (UCGCACCCATCTCTCTCCUUC; chemistry not given here)",level of activity against the HIV-2 strain ROD,HIV-2 (ROD); compared with the HIV-1 strains,enhanced level of activity
same,activity against HIV-2,HIV-2 (ROD); strain ROD,active
same,activity against monocyte-macrophage-tropic strains BaL and ADA,[1],not active
same,toxicity,"[2]; high test concentration 50 μg/ml, day 7, any quantitative endpoint",No toxicity was detected
same,toxicity,"[2]; high test concentration 150 μg/ml, exposure extended to 14 days",no toxicity was detected
